Results as given in patent publication US8173689B2 (Novartis AG, priority 2006, dated 2012).
Read-outs that look alike come from different tables or passages of the source.

Experiments:
[1] = target: T1, kinase domain of cKIT (Homo sapiens, UniProt P10721); test: Inhibition of cKIT kinase signaling in an in vitro biochemical assay (alphascreen); conditions: tested at about 1 μM, read-out: cKit percent inhibition
T1 construct: The kinase domain of cKIT was assayed in 50 mM Hepes; purchased Upstate 14-559

[2] = target: T2, cytoplasmic domain of the human CSF-1R (Homo sapiens, UniProt P07333); test: In vitro kinase assay for colony stimulating factor-1 receptor (AlphaScreen); type: biochemical; conditions: tested at about 1 μM, read-out: CSF-1R percent inhibition
T2 construct: Recombinant protein corresponding to the cytoplasmic domain of the human CSF-1R; purchased Invitrogen Corporation, Carlsbad, Calif; PV3249
T2 sequence (P07333 539-972 limits assumed): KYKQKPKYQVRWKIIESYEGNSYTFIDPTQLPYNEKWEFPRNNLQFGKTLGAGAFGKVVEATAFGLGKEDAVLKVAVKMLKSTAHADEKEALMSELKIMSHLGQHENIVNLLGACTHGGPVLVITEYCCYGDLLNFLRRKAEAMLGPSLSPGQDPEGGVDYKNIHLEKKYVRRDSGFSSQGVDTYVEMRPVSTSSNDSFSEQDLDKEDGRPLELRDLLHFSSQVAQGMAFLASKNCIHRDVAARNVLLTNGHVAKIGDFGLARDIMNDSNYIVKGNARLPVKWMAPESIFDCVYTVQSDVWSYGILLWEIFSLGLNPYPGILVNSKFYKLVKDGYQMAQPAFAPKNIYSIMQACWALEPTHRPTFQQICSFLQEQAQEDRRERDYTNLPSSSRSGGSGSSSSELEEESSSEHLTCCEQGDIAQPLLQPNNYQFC
Outline: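 Test compounds, serially diluted threefold starting at 25 μM, were mixed with Hepes buffer (pH 7.5, Mg2+/Mn2+, DTT, BSA, Tween 80) containing 1 μM ATP. Recombinant kinase was present at 4 nM. After stopping, beads were added and plates were read the next day by AlphaScreen.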

[3] = system: MNFS60 (murine AML cells); test: Cell viability assay in MCSF dependent MNFS60 cells (Cell Titer Glo); type: cell-based; conditions: Mus musculus, tested at about 1 μM, read-out: M-NFS-60 CP percent inhibition
Procedure: Cell viability was assessed by Cell Titer Glo, Promega. […] Test compounds were serially diluted (3 fold) in DMSO to 500× the final concentration. […] Final concentration of MCSF is 10 ng/ml. Cells were incubated for 72 hrs at 37° C., 5% CO2. After the incubation 100 μl Cell Titer Glo is added to each well to determine viable cells. The assay was performed according to the manufacturer's instruction (Promega Corporation, Madison, Wis. USA). Each experimental condition was performed in triplicate. Raw data was imported in Abase and EC50s calculated with XL-fit data analysis software.

[4] = target: T3, kinase domain of PDGFRβ (Homo sapiens, UniProt P09619); test: Inhibition of PDGFRb kinase signaling in an in vitro biochemical assay (alphascreen); conditions: tested at about 1 μM, read-out: PDGFRβ percent inhibition
T3 construct: The kinase domain of PDGFRβ was assayed in 50 mM Hepes; purchased Invitrogen P3082
T3 sequence (P09619 600-962 limits assumed): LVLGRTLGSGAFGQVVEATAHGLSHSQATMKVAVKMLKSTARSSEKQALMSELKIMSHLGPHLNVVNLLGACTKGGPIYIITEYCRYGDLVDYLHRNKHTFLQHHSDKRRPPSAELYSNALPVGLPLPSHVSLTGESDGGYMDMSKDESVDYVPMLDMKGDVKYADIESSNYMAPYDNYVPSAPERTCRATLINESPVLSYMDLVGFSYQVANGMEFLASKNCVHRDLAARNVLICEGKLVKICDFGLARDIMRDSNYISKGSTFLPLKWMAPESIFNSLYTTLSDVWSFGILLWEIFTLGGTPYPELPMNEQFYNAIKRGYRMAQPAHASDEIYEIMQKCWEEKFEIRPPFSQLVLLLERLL

T1 sequence (P10721 589-937 limits assumed): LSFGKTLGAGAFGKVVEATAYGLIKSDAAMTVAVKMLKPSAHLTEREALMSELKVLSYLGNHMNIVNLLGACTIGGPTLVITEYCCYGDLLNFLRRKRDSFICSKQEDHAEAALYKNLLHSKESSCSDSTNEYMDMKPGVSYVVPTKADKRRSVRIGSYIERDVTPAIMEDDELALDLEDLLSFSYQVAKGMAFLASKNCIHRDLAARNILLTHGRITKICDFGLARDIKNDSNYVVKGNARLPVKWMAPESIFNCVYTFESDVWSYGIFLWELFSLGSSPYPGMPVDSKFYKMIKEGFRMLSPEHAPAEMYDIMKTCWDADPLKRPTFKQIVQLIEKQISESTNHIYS

Compound | inhibition at 1 µM ([1]; compounds of Table 3) | inhibition at 1 µM ([2]; compounds of Table 3) | inhibition at 1 µM ([3]; compounds of Table 3) | inhibition at 1 µM ([4]; compounds of Table 3) | inhibition at 1 µM [1] | inhibition at 1 µM [2] | inhibition at 1 µM ([3]; MNFS60 cells) | inhibition at 1 µM [4] | inhibition at 1 µM ([3]; MCSF dependent MNFS60 cells)
CNC(=O)c1cc(Oc2ccc3nc(NC4C[C@@H]5CC[C@H]4C5)sc3c2)ccn1 (stereo partly drawn) [Compound 140] | 27% | 100% | 25% | 100% | – | – | – | – | –
CNC(=O)c1cc(Oc2ccc3nc(NCCC(C)C)sc3c2)ccn1 [Compound 130] | 90% | 100% | 79% | 70% | – | – | – | – | –
CNC(=O)c1cc(Oc2ccc3nc(NCc4ccncc4)oc3c2)ccn1 [Compound 57, 4-{2-[(Pyridin-4-ylmethyl)-amino]-benzooxazol-6-yloxy}-pyridine-2-carboxylic acid methylamide] | – | – | – | – | 35% | 97% | 35% | 3% | –
CNC(=O)c1cc(Oc2ccc3nc(NCC4COc5ccccc5O4)sc3c2)ccn1 (stereo not drawn) [Compound 144] | 38% | 100% | 41% | 12% | – | – | – | – | –
c1ccc2c(Oc3ccc4nc(NCCN5CCOCC5)sc4c3)ccnc2c1 [Example 255, N-(2-morpholinoethyl)-6-(quinolin-4-yloxy)benzo[d]thiazol-2-amine] | 92% | 100% | 69% | 8% | – | – | – | – | –
CNC(=O)c1cc(Oc2ccc3nc(NCc4ccc(F)cc4F)oc3c2)ccn1 [Compound 71, 4-[2-(2,4-Difluoro-benzylamino)-benzooxazol-6-yloxy]-pyridine-2-carboxylic acid methylamide] | – | – | – | – | 27% | 100% | 11% | 0% | –
CNC(=O)c1cc(Oc2ccc3nc(NCc4cc(OC)ccc4OC)oc3c2)ccn1 [Compound 83, 4-[2-(2,5-Dimethoxy-benzyl-amino)-benzooxazol-6-yloxy]-pyridine-2-carboxylic acid methylamide] | – | – | – | – | 12% | 99% | 26% | 0% | –
Cn1cc(-c2cc(Oc3ccc4nc(N[C@H](CO)Cc5ccccc5)sc4c3)ccn2)cn1 [Example 351, (S)-2-(6-(2-(1-methyl-1H-pyrazol-4-yl)pyridin-4-yloxy)benzo[d]thiazol-2-ylamino)-3-phenylpropan-1-ol] | – | – | – | – | 98% | 100% | – | 79% | 100%
NC(=O)c1cc(Oc2ccc3nc(NCC4CCCCC4)oc3c2)ccn1 [Compound 69, 4-[2-(Cyclohexylmethyl-amino)-benzooxazol-6-yloxy]-pyridine-2-carboxylic acid amide] | – | – | – | – | 0% | 100% | 0% | 0% | –
O[C@@H]1CCCC[C@H]1Nc1nc2ccc(Oc3ccncc3-c3cccnc3)cc2s1 [Example 190] | 22% | 98% | 5% | 19% | – | – | – | – | –
CNC(=O)c1cc(Oc2ccc3nc(NCc4ccc(OC)c(OC)c4)sc3c2)ccn1 [Compound 151, 4-[2-(3,4-Dimethoxy-benzyl-amino)-benzothiazol-6-yloxy]-pyridine-2-carboxylic acid methylamide] | – | – | – | – | 5% | 99% | 26% | 0% | –
c1ccc2c(Oc3ccc4nc(NC5CCCCCC5)sc4c3)ccnc2c1 [Example 247, N-cycloheptyl-6-(quinolin-4-yloxy)benzo[d]thiazol-2-amine] | 100% | 100% | 100% | 80% | – | – | – | – | –
CNC(=O)c1cc(Oc2ccc3nc(NCC4CCCN(C(C)=O)C4)sc3c2)ccn1 (stereo not drawn) [Example 306, 4-(2-((1-acetylpiperidin-3-yl)methylamino)benzo[d]thiazol-6-yloxy)-N-methylpicolinamide] | – | – | – | – | 6% | 99% | – | 0% | 48%
CC(C)(C)OC(=O)NNC(=O)c1cc(Oc2ccc3nc(NCC4CCCCC4)oc3c2)ccn1 [Compound 68, N'-{4-[2-(Cyclohexylmethyl-amino)-benzooxazol-6-yloxy]-pyridine-2-carbonyl}-hydrazinecarboxylic acid tert-butyl ester] | – | – | – | – | 6% | 99% | 18% | 3% | –
CC(C)C[C@@H](CO)Nc1nc2ccc(Oc3ccnc(-c4cnn(C)c4)c3)cc2s1 [Example 358, (S)-4-methyl-2-(6-(2-(1-methyl-1H-pyrazol-4-yl)pyridin-4-yloxy)benzo[d]thiazol-2-ylamino)pentan-1-ol] | – | – | – | – | 100% | 100% | – | 99% | 100%
COCCNC(=O)c1cc(Oc2ccc3nc(NCC4CCCCC4)sc3c2)ccn1 [Compound 159, 4-(2-(cyclohexylmethyl-amino)benzothiazol-6-yloxy)-N-(2-methox.ylethyl)-pyridine-2-carboxamide] | – | – | – | – | 12% | 99% | 17% | 1% | –
CNC(=O)c1cc(Oc2ccc3nc(NCc4c(OC)cc(OC)cc4OC)oc3c2)ccn1 [Compound 113, 4-[2-(2,4,6-Trimethoxy-benzylamino)-benzooxazol-6-yloxy]-pyridine-2-carboxylic acid methylamide] | – | – | – | – | 7% | 97% | 19% | 17% | –
CNC(=O)c1cc(Oc2ccc3nc(N[C@@H](C)C(C)C)sc3c2)ccn1 [Compound 150] | 24% | 100% | 22% | 2% | – | – | – | – | –
Cn1nccc1-c1cc(Oc2ccc3nc(N[C@@H]4CCCC[C@H]4O)sc3c2)ccn1 [Example 265, (1R,2R)-2-(6-(2-(1-methyl-1H-pyrazol-5-yl)pyridin-4-yloxy)benzo[d]thiazol-2-ylamino)cyclohexanol] | 9% | 100% | 32% | 12% | – | – | – | – | –
Cn1cc(-c2cc(Oc3ccc4nc(N[C@H](CO)C5CCCCC5)sc4c3)ccn2)cn1 [Example 353, (S)-2-cyclohexyl-2-(6-(2-(1-methyl-1H-pyrazol-4-yl)pyridin-4-yloxy)benzo[d]thiazol-2-ylamino)ethanol] | – | – | – | – | 100% | 100% | – | 100% | 100%
c1cncc(CNc2nc3ccc(Oc4ccnc5ccccc45)cc3s2)c1 [Example 254, N-(pyridin-3-ylmethyl)-6-(quinolin-4-yloxy)benzo[d]thiazol-2-amine] | 98% | 100% | 100% | 0% | – | – | – | – | –
CNC(=O)c1cc(Oc2ccc3nc(NCc4ccccc4Br)oc3c2)ccn1 [Compound 72, 4-[2-(2-Bromo-benzylamino)-benzooxazol-6-yloxy]-pyridine-2-carboxylic acid methylamide] | – | – | – | – | 65% | 100% | 48% | 0% | –
CNC(=O)c1cc(Oc2ccc3nc(N[C@@H]4CCCC[C@H]4NC(C)=O)sc3c2)ccn1 [Example 298, 4-(2-((1R,2R)-2-acetamidocyclohexylamino)benzo[d]thiazol-6-yloxy)-N-methylpicolinamide] | 13% | 98% | 41% | 0% | – | – | – | – | –
OC[C@H](CC1CCCCC1)Nc1nc2ccc(Oc3ccnc4ccccc34)cc2s1 [Example 250] | 98% | 97% | 20% | 0% | – | – | – | – | –
